According to the supplement of paper PMC11451515:

System: NOMO1
Assay: cell viability relative to DMSO control; higher = less cytotoxic
Conditions: 48 h
Method in brief: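 Cells were incubated for 48 h at 37°C before CellTiter-Glo One luminescence was read. The cells were NOMO1 or SEM (500 cells/well) or P12-Ichikawa (1000 cells/well) leukemia cells, adapted for at least four passages in each medium and seeded in 1536-well plates (5 μl). Dosing used library compounds in DMSO applied by pin over 11 threefold points, 47 μM to 0.79 nM. Viability is the per-plate percentage of DMSO wells, with cell-free wells as background.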

[1] = HPLM + 10% dialyzed FBS, 0.000781 µM
[2] = HPLM + 10% dialyzed FBS, 0.00234 µM
[3] = HPLM + 10% dialyzed FBS, 0.00702 µM
[4] = HPLM + 10% dialyzed FBS, 0.0211 µM
[5] = HPLM + 10% dialyzed FBS, 0.0632 µM
[6] = HPLM + 10% dialyzed FBS, 0.19 µM
[7] = HPLM + 10% dialyzed FBS, 0.569 µM
[8] = HPLM + 10% dialyzed FBS, 1.71 µM
[9] = HPLM + 10% dialyzed FBS, 5.12 µM
[10] = HPLM + 10% dialyzed FBS, 15.4 µM
[11] = HPLM + 10% dialyzed FBS, 46.1 µM
[12] = RPMI 5 mM glucose + 10% FBS, 0.000781 µM
[13] = RPMI 5 mM glucose + 10% FBS, 0.00234 µM
[14] = RPMI 5 mM glucose + 10% FBS, 0.00702 µM
[15] = RPMI 5 mM glucose + 10% FBS, 0.0211 µM
[16] = RPMI 5 mM glucose + 10% FBS, 0.0632 µM
[17] = RPMI 5 mM glucose + 10% FBS, 0.19 µM
[18] = RPMI 5 mM glucose + 10% FBS, 0.569 µM
[19] = RPMI 5 mM glucose + 10% FBS, 1.71 µM
[20] = RPMI 5 mM glucose + 10% FBS, 5.12 µM
[21] = RPMI 5 mM glucose + 10% FBS, 15.4 µM
[22] = RPMI 5 mM glucose + 10% FBS, 46.1 µM
[23] = RPMI 5 mM glucose + 10% dialyzed FBS, 0.000781 µM
[24] = RPMI 5 mM glucose + 10% dialyzed FBS, 0.00234 µM
[25] = RPMI 5 mM glucose + 10% dialyzed FBS, 0.00702 µM
[26] = RPMI 5 mM glucose + 10% dialyzed FBS, 0.0211 µM
[27] = RPMI 5 mM glucose + 10% dialyzed FBS, 0.0632 µM
[28] = RPMI 5 mM glucose + 10% dialyzed FBS, 0.19 µM
[29] = RPMI 5 mM glucose + 10% dialyzed FBS, 0.569 µM
[30] = RPMI 5 mM glucose + 10% dialyzed FBS, 1.71 µM
[31] = RPMI 5 mM glucose + 10% dialyzed FBS, 5.12 µM
[32] = RPMI 5 mM glucose + 10% dialyzed FBS, 15.4 µM
[33] = RPMI 5 mM glucose + 10% dialyzed FBS, 46.1 µM

Row | Structure (SMILES) | cell viability [1] | cell viability [2] | cell viability [3] | cell viability [4] | cell viability [5] | cell viability [6] | cell viability [7] | cell viability [8] | cell viability [9] | cell viability [10] | cell viability [11] | cell viability [12] | cell viability [13] | cell viability [14] | cell viability [15] | cell viability [16] | cell viability [17] | cell viability [18] | cell viability [19] | cell viability [20] | cell viability [21] | cell viability [22] | cell viability [23] | cell viability [24] | cell viability [25] | cell viability [26] | cell viability [27] | cell viability [28] | cell viability [29] | cell viability [30] | cell viability [31] | cell viability [32] | cell viability [33]
1 | CO[C@H]1C[C@@H]2CC[C@@H](C)[C@@](O)(O2)C(=O)C(=O)N2CCCC[C@H]2C(=O)O[C@H]([C@@H](C)C[C@@H]2CC[C@@H](O)[C@H](OC)C2)CC(=O)[C@H](C)/C=C(\C)[C@@H](O)[C@@H](OC)C(=O)[C@H](C)C[C@H](C)/C=C/C=C/C=C/1C | 106% | 110% | 112% | 91% | 95.3% | 112% | 103% | 104% | 81.6% | 88.7% | 81.5% | 113% | 116% | 128% | 136% | 136% | 109% | 113% | 118% | 97.3% | 111% | 103% | 112% | 116% | 121% | 106% | 108% | 117% | 111% | 115% | 128% | 105% | 99.9%
2 | COc1cc(N2CCN(C)CC2)ccc1Nc1nc(N)c(C(=O)c2c(Cl)cccc2Cl)s1 | 117% | 105% | 119% | 105% | 110% | 116% | 126% | 128% | 107% | 89% | 82.7% | 107% | 117% | 103% | 98.7% | 103% | 118% | 102% | 105% | 104% | 98.6% | 87.3% | 108% | 107% | 108% | 116% | 96.6% | 114% | 103% | 109% | 102% | 105% | 89.7%
3 | CCN1\C=C(C(O)=O)/C(=O)C2=C1C(=C(N3CCNC(C)C3)C(=C2)F)F (configuration not stated) | 101% | 103% | 114% | 115% | 118% | 121% | 121% | 129% | 128% | 120% | 114% | 114% | 117% | 102% | 115% | 121% | 107% | 122% | 116% | 123% | 116% | 111% | 103% | 112% | 104% | 106% | 118% | 112% | 111% | 122% | 113% | 139% | 98.3%
4 | CC(=O)OCC(=O)[C@@]1(O)CC[C@H]2[C@@H]3CCC/4=C/C(=O)/C=C\[C@]4(C)[C@H]3[C@@H](O)C[C@]12C |  |  |  |  |  |  |  |  |  |  |  | 131% | 119% | 121% | 119% | 114% | 119% | 120% | 112% | 119% | 106% | 115% |  |  |  |  |  |  |  |  |  |  | 
5 | Cc1cnc(Nc2cccc(CN3CCOCC3)c2)nc1Nc1cccc([S+](=O)([O-])NC(C)(C)C)c1 | 87.9% | 99.6% | 100% | 96.4% | 107% | 108% | 104% | 97.8% | 61.5% | 100% | 84.1% | 79.8% | 85.1% | 85.4% | 94.8% | 83.8% | 78.1% | 80.4% | 75.2% | 35.1% | 86.3% | 85.5% | 84% | 96.7% | 86.2% | 90.7% | 88% | 98.6% | 93.6% | 85.1% | 43.5% | 90.7% | 87.3%
6 | OC(=O)CNC(=O)\C1=C(/O)C2=CC=CC=C2N(CC3=CC=CC=C3)C1=O | 98.2% | 109% | 92% | 112% | 108% | 97.7% | 105% | 87.3% | 109% | 101% | 93.6% | 83.7% | 89.5% | 100% | 91.7% | 96.3% | 93% | 96.2% | 83.5% | 84.9% | 85.1% | 86.4% | 93% | 94.6% | 87.9% | 101% | 95.7% | 94% | 97.2% | 102% | 94.7% | 93% | 74.3%
7 | CCn1c(C(=O)N(C2CC2)C2CC2)cc2c3c(ncn3C)c(Nc3cc(C)n(C)n3)nc21 | 90.4% | 113% | 106% | 114% | 122% | 115% | 113% | 105% | 108% | 119% | 88.5% | 86.7% | 100% | 93.9% | 118% | 117% | 103% | 114% | 102% | 102% | 111% | 84.4% | 84.1% | 104% | 105% | 94.7% | 116% | 111% | 115% | 112% | 110% | 116% | 98.6%
8 | NC[C@H](O)c1ccc(O)c(O)c1 | 115% | 117% | 119% | 104% | 120% | 104% | 90.7% | 85.7% | 97.7% | 86.9% | 72.4% | 96.7% | 86.8% | 112% | 95.7% | 105% | 91% | 87.3% | 91.2% | 99.2% | 97.5% | 78% | 93.2% | 90.3% | 99% | 91% | 88.1% | 85.4% | 86.6% | 93.4% | 83.3% | 88.6% | 87.7%
